Where two headings read alike, the source gives them in different places. Marks after values point to notes of the source that are not given here.
How the values were obtained:
[1] = tested on: Fusarium proliferatum; assay: Production of fumonisin FB1 by Fusarium proliferatum (microtiter plate, HPLC-MS/MS and OD620); format: cell-based; conditions: for % inhibition FB1 production at 50 μM: 5 days at 20° C., HPLC-MS/MS; for % inhibition fungal growth at 50 μM: Fusarium proliferatum, OD620 at start and after 5 days
[2] = tested on: Pyrenophora teres; assay: In vivo test on Pyrenophora teres (barley net blotch); conditions: dose of 500 ppm; barley plants; grading 12 days after contamination
Procedure, shortened: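 Barley plants (Plaisant) grown at 12° C. sprayed at 1-leaf stage with compound in acetone/Tween/DMSO diluted in water; 24 h later inoculated with P. teres spores (12,000 spores/ml). Incubated 24 h at ~20° C., 100% RH, then 12 days at 80% RH; graded 12 days post-inoculation against untreated controls.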

[3] = physchem
[4] = tested on: Leptosphaeria nodorum; assay: Leptosphaeria nodorum test (wheat) / protective; format: in vivo; conditions: 500 ppm active compound, protective spray, evaluated 7-9 days after inoculation
Protocol: Leptosphaeria nodorum Test (Wheat)/Protective
Solvent: 49 parts by weight of N,N-dimethylformamide
Emulsifier: 1 part by weight of alkylaryl polyglycol ether
To produce a suitable preparation of active compound, 1 part by weight of active compound is mixed with the stated amounts of solvent and emulsifier, and the concentrate is diluted with water to the desired concentration.
To test for protective activity, young wheat plants are sprayed with the preparation of active compound at the stated application rate. […] The plants are then placed in a greenhouse at 90% rel. atmospheric humidity and a temperature of 22° C.
Evaluation is carried out 7-9 days after the inoculation. 0% means an efficacy which corresponds to that of the control, whereas an efficacy of 100% means that no infection is observed.

[5] = tested on: Alternaria solani; assay: Alternaria test (tomato) / protective; format: in vivo; conditions: 500 ppm active compound, protective spray, evaluated 7 days after inoculation
Procedure, shortened: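 Young tomato plants sprayed protectively with compound formulated in DMF with alkylaryl polyglycol ether emulsifier and diluted in water to the application rate. After inoculation, plants held at 96% rel. humidity and 20° C. Efficacy scored 7 days post-inoculation: 0% equals untreated control, 100% no infection.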

[6] = tested on: Fusarium graminearum; format: cell-based; conditions: 50 μM; for % Inhibition of DON/AcDON at 50 μM: 7 days at 28° C.

| SMILES | log p (pH 2.7) | % inhibition FB1 production at 50 μM [1] | % inhibition fungal growth at 50 μM [1] | protection [2] | chromatographic logP ([3]; pH 2.7) | chromatographic logP ([3]; pH 7.8) | efficacy [4] | efficacy [5] | % Inhibition of fungal growth at 50 μM [6] | % Inhibition of DON/AcDON at 50 μM [6] | log p (pH 2.3) | logP value of the minor isomer (pH 2.7) |
| --- | --- | --- | --- | --- | --- | --- | --- | --- | --- | --- | --- | --- |
| CC(=O)n1cc(-c2ccncn2)c(-c2ccc(Cl)s2)n1 [Example 4] | 2.92^[b] | 89% | 22% |  |  |  |  |  |  |  |  |  |
| CCC(=O)Nc1cc(-c2cn(C(C)CC)nc2-c2cc(Cl)cs2)ccn1 (centres unmarked) [Example 164, N-{4-[1-sec-Butyl-3-(4-chloro-2-thienyl)-1H-pyrazol-4-yl]pyridin-2-yl}propanamide] |  |  |  | 100% | 3.07 | 3.59 | 95% | 90% |  |  |  |  |
| CCC(=O)Nc1cc(-c2cn(C(C)C)nc2-c2ccc(Cl)s2)ccn1 [Example 246] | 2.78^[b] |  |  | 100% |  |  | 90% | 95% | 91% | 99% |  |  |
| CC(=O)Nc1cc(-c2cnn(/C=C/F)c2-c2ccc(Cl)s2)ccn1 [Example 292] | 2.84^[b] |  |  | 95% |  |  | 70% | 90% | 45% | 100% |  |  |
| CC(C)CC(=O)Nc1cc(-c2cn(C(C)C)nc2-c2ccc(Cl)s2)ccn1 [Example 258] | 3.63^[b] |  |  | 100% |  |  | 70% | 95% | 54% | 94% |  |  |
| CCn1cc(-c2ccnc(NC(C)=O)c2)c(-c2ccc(Cl)s2)n1 [Example 284] | 2.1^[b] |  |  | 100% |  |  | 80% | 95% | 100% | 99% |  |  |
| CCC(C)n1cc(-c2ccnc(C#N)c2)c(-c2ccc(Cl)s2)n1 (centres unmarked) [Example 97] | 4.41^[b] | 99% | 17% |  |  |  |  | 90% |  |  |  |  |
| CCC(C)n1cc(-c2ccncc2)c(-c2ccc(Br)s2)n1 (centres unmarked) [Example 354] | 2.15^[b] |  |  | 95% |  |  | 70% | 90% | 97% | 99% |  |  |
| CCn1cc(-c2ccnc(NC(=O)CC(C)C)c2)c(-c2ccc(Cl)s2)n1 [Example 286] | 3.15^[b] |  |  | 80% |  |  | 90% | 90% | 68% | 99% |  |  |
| CCC(C)C(=O)Nc1cc(-c2cn(C(C)C)nc2-c2ccc(Cl)s2)ccn1 (centres unmarked) [Example 249] | 3.61^[b] |  |  | 95% |  |  | 80% | 95% | 11% | 99% |  |  |
| CC(C)Cn1cc(-c2ccnc(NC(=O)C(C)C)n2)c(-c2ccc(Cl)s2)n1 [Example 98] |  | 97% | 4% |  |  |  |  |  |  |  | 3.67^[a] |  |
| CCC(C)n1cc(-c2ccncc2)c(-c2ccc(F)s2)n1 (centres unmarked) [Example 106] | 1.78^[b] | 98% | 39% |  |  |  |  | 100% | 98% | 99% |  |  |
| CC(C)Cn1cc(-c2ccncc2)c(-c2ccc(Br)s2)n1 [Example 405] | 2.1^[b] |  |  | 70% |  |  | 94% | 94% | 90% | 99% |  | (1.98) |
| CC(C)n1cc(-c2ccncc2)c(-c2ccc(Br)s2)n1 [Example 387] | 1.88^[b] |  |  | 80% |  |  | 90% | 100% | 93% | 99% |  |  |
| Cn1cc(-c2ccnc(NC(=O)CC3CC3)c2)c(-c2ccc(Cl)s2)n1 [Example 281] | 2.54^[b] |  |  | 90% |  |  | 80% | 90% | 100% | 99% |  |  |
| CCC(C)n1cc(-c2ccnc(NC(=O)C3CC3)c2)c(-c2ccc(Cl)s2)n1 (centres unmarked) [Example 226] | 3.35^[b] |  |  | 100% |  |  | 80% | 90% | 93% | 99% |  |  |
| CCC(C)C(=O)Nc1cc(-c2cn(CC)nc2-c2ccc(Cl)s2)ccn1 (centres unmarked) [Example 252] | 3.13^[b] |  |  | 100% |  |  | 70% | 95% | 99% | 99% |  |  |
| CCC(=O)Nc1cc(-c2cn(CC)nc2-c2ccc(Cl)s2)ccn1 [Example 263] | 2.4^[b] |  |  | 90% |  |  | 80% | 95% | 100% | 99% |  |  |
| CCC(C)n1ncc(-c2ccncc2)c1-c1ccc(F)s1 (centres unmarked) [Example 107] | 1.69^[b] | 80% | 1% |  |  |  |  |  | 86% | 100% |  |  |
| CCC(C)n1cc(-c2ccncc2)c(-c2cc(Cl)cs2)n1 (centres unmarked) [Example 167, 4-[1-sec-Butyl-3-(4-chloro-2-thienyl)-1H-pyrazol-4-yl]pyridine] |  |  |  | 95% | 1.86 |  | 90% | 90% |  |  |  | (1.76) |
| CCC(=O)Nc1cc(-c2cn(C)nc2-c2ccc(Cl)s2)ccn1 [Example 278] | 2.05^[b] |  |  | 90% |  |  | 80% | 90% | 100% | 98% |  |  |
| CCC(=O)Nc1cc(-c2cn(C(C)CC)nc2-c2ccc(Cl)s2)ccn1 (centres unmarked) [Example 225] | 3.19^[b] |  |  | 95% |  |  | 70% | 95% | 87% | 99% |  |  |
| CC(=O)Nc1cc(-c2cn(C)nc2-c2ccc(Cl)s2)ccn1 [Example 287] | 1.79^[b] |  |  | 95% |  |  | 80% | 90% | 94% | 99% |  |  |
| CCn1cc(-c2ccnc(NC(=O)C3CC3)c2)c(-c2ccc(Cl)s2)n1 [Example 264] | 2.52^[b] |  |  | 90% |  |  | 80% | 90% | 100% | 99% |  |  |
| Cn1cc(-c2ccnc(NC(=O)C3CC3)c2)c(-c2ccc(Cl)s2)n1 [Example 279] | 2.16^[b] |  |  | 95% |  |  | 70% | 80% | 100% | 98% |  |  |
| COc1ccc(Cn2nc(-c3ccc(Cl)s3)c(-c3ccncc3)c2C2CC2)cc1 [Example 101] | 2.69^[b] | 87% | 0% |  |  |  |  |  |  |  |  |  |

Source: patent US8685974B2 (Bayer CropScience AG, priority 2009, dated 2014)
